Assays:
[1] = Accelerated stability test; assay type: physicochemical; details: 40° C.±2° C., relative humidity 75%±5%; for Melting point / Content of C25H21F2NO3, based on anhydride / Relevant substances: Single maximum unknown foreign matter / Relevant substances: Total foreign matter / Moisture / Relevant substances: Diastereomer: commercial package; for Melting point: limit 149-153° C.; for Content of C25H21F2NO3, based on anhydride: shall be no less than 97.0%; for Relevant substances: Single maximum unknown foreign matter: shall not exceed 0.3%; for Relevant substances: Total foreign matter: shall not exceed 1.5%; for Moisture: shall not exceed 2.0%; for Relevant substances: Diastereomer: shall not exceed 1.0%
Description: In accordance with the stability test guiding principles (Chinese Pharmacopoeia 2010 Edition 2—Annex XIX C), prepare the sample of the crystal form I of the compound of formula A described in embodiment 6 in a commercial package, place the samples in a thermotank at the temperature of 40° C.±2° C. with the relative humidity of 75%±5%, with the duration of 6 months, take each sample once at the ends of the first month, the second month, the third month and the sixth month respectively to detect the key stability inspection items and compare with the results of the sample at the zero day, wherein see Table 4 for the comparisons.

Long term stability test = assay type: physicochemical; details: 25° C.±2° C., relative humidity 60%±10%; for Content of C25H21F2NO3, based on anhydride: shall be no less than 97.0%; for Relevant substances: Single maximum unknown foreign matter: shall not exceed 0.3%; for Relevant substances: Total foreign matter: shall not exceed 1.5%; for Moisture: shall not exceed 2.0%
Description: In accordance with the stability test guiding principles (Chinese Pharmacopoeia 2010 Edition 2—Annex XIX C), prepare the samples of the crystal form I of the compound of formula A described in embodiment 6 in a commercial package, place the samples in a thermotank at the temperature of 25° C.±2° C. with the relative humidity of 60%±10%, take each sample from the samples once at the ends of the third month, the sixth month and the ninth month respectively to detect the key stability inspection items of each sample and compare with the result of the sample at the zero day, wherein see Table 3 for the comparisons.

[2] = commercial package, month 9, shall not exceed 0.5%

Melting point ([1]; month 0): 149.8-152.1 °C
Content of C25H21F2NO3, based on anhydride ([1]; month 0): 98.71%
Relevant substances: Single maximum unknown foreign matter ([1]; month 0): 0.097%
Relevant substances: Total foreign matter ([1]; month 0): 0.342%
Moisture ([1]; month 0): 0.20%
Melting point ([1]; month 1): 149.3-151.5 °C
Content of C25H21F2NO3, based on anhydride ([1]; month 1): 99.11%
Relevant substances: Single maximum unknown foreign matter ([1]; month 1): 0.1004%
Relevant substances: Diastereomer ([1]; month 1): 0.0128%
Relevant substances: Total foreign matter ([1]; month 1): 0.3757%
Moisture ([1]; month 1): 0.30%
Melting point ([1]; month 2): 149.7-152.1 °C
Content of C25H21F2NO3, based on anhydride ([1]; month 2): 98.82%
Relevant substances: Single maximum unknown foreign matter ([1]; month 2): 0.0856%
Relevant substances: Diastereomer ([1]; month 2): Not detected
Relevant substances: Total foreign matter ([1]; month 2): 0.3650%
Moisture ([1]; month 2): 0.28%
Melting point ([1]; month 3): 149.7-152.1 °C
Content of C25H21F2NO3, based on anhydride ([1]; month 3): 98.78%
Relevant substances: Single maximum unknown foreign matter ([1]; month 3): 0.0983%
Relevant substances: Diastereomer ([1]; month 3): Not detected
Relevant substances: Total foreign matter ([1]; month 3): 0.3717%
Moisture ([1]; month 3): 0.37%
Melting point ([1]; month 6): 149.5-151.9 °C
Content of C25H21F2NO3, based on anhydride ([1]; month 6): 97.97%
Relevant substances: Single maximum unknown foreign matter ([1]; month 6): 0.2017%
Relevant substances: Diastereomer ([1]; month 6): Not detected
Relevant substances: Total foreign matter ([1]; month 6): 1.0828%
Moisture ([1]; month 6): 0.44%
Content of C25H21F2NO3, based on anhydride (Long term stability test; commercial package, month 0): 98.74%
Relevant substances: Single maximum unknown foreign matter (Long term stability test; commercial package, month 0): 0.097%
Relevant substances: Total foreign matter (Long term stability test; commercial package, month 0): 0.342%
Moisture (Long term stability test; commercial package, month 0): 0.23%
Content of C25H21F2NO3, based on anhydride (Long term stability test; commercial package, month 3): 98.99%
Relevant substances: Single maximum unknown foreign matter (Long term stability test; commercial package, month 3): 0.1013%
Relevant substances: Total foreign matter (Long term stability test; commercial package, month 3): 0.3488%
Moisture (Long term stability test; commercial package, month 3): 0.41%
Content of C25H21F2NO3, based on anhydride (Long term stability test; commercial package, month 6): 98.83%
Relevant substances: Single maximum unknown foreign matter (Long term stability test; commercial package, month 6): 0.0956%
Relevant substances: Total foreign matter (Long term stability test; commercial package, month 6): 0.3551%
Moisture (Long term stability test; commercial package, month 6): 0.56%
Content of C25H21F2NO3, based on anhydride (Long term stability test; commercial package, month 9): 98.91%
Relevant substances: Single maximum unknown foreign matter (Long term stability test; commercial package, month 9): 0.0940%
Isomer: E-isomer (Long term stability test; [2]): 0.0161%
Isomer: Enantiomer (Long term stability test; [2]): 0.0587%
Relevant substances: Total foreign matter (Long term stability test; commercial package, month 9): 0.3581%
Moisture (Long term stability test; commercial package, month 9): 0.32%
Compound: O=C1[C@H](C/C=C(\CO)c2ccc(F)cc2)[C@@H](c2ccc(O)cc2)N1c1ccc(F)cc1 [crystal form I, (3R,4S)-4-(4-hydroxyphenyl)-3-[3-(4-fluorophenyl)-4-hydroxybut-2(Z)-enyl]-1-(4-fluorophenyl)-2-azetidinone]
Accelerated stability, conclusion on inspection indexes ([1]; 6 months): the relevant substances are grown significantly in the sixth month and the content is reduced at a certain level; however, both of the two are within the acceptable range
Long term stability, conclusion on inspection indexes (Long term stability test; nine month): various inspection indexes of the samples do not change apparently and all meet the specifications

Reference: US9802891B2, “Crystal forms of azetidinone compounds and preparing methods thereof” (Zhejiang Hisun Pharmaceutical Co., Ltd., priority 2012, dated 2017)
